Assay type in all cases: physicochemical
A short description of series [1]: Kinetic solubility in PBS pH 7.4. As to conditions: aqueous buffer, kinetic from dmso stock, kinetic solubility after 2 h, at 37 °C in PBS, nominal 250 μM, read-out: Kin.Sol. On the procedure: On a 96-well polypropylene plate (Greiner bio-one) 7.5 μL stock solutions were added to 292.5 μL PBS (pH 7.4) to make a solution with the nominal concentration of 250 μM. For each sample 3 replicates were measured. […] After that, each sample was transferred into a filter plate (MSSBLPC, Multiscreen Filter plate, Merck kGaA) and filtered (Vaccum Manifold, Merck kGaA, Darmstadt, Germany). The filtrates were transferred into UV-Star microplates (Greiner bio-one) and acetonitrile (AcN) was added to each well to avoid precipitation. The final solvent ratio was AcN:PBS 70:30. UV-Vis spectra were collected for each replicate by a Multiskan Sky UV-plate reader (Thermo Scientific, Waltham, MA, USA) in a wavelength range of 250–700 nm, with 1 nm steps. After blank substraction, the kinetic solubility of the samples was determined based on absorption at λmax using a 5-point calibration curve for each sample recorded in 70:30 AcN:PBS solvent.
Limit of detection (LOD) and limit of quantification (LOQ) were calculated with Equations (1) and (2) respectively, based on UV-Vis spectral data:(1) LOD=3.3×σ/s (2) LOQ=10×σ/s where the σ value in the equations stands for the standard deviation of the absorption base line at 700 nm (where no sample-specific absorption was observed). The s value is the slope of the calibration curve recorded for each sample based on their absorption at λmax (Table 4.)

A further series in a line: Water dispersibility. As to conditions: distilled water, sonication. As to the method:
About 2 mg of the examined substance was dispersed in 40 mL of distilled water and the suspension was sonicated for 2 min. The addition of water was continued with 10 mL portions, after each portion the mixture was sonicated for 2 min. This process was continued till a homogenous solution was observed by naked eye. Then, the solution was let to stand for an hour to inspect any precipitate formation, but no changes occurred in any of the cases.

Series [2] is described as follows: Hydrodynamic diameter and colloidal stability of aggregates by dynamic light scattering. The conditions noted are these: for mean size (hydrodynamic diameter) / zeta potential: 37 °C; for PDI: sd^2/mean size^2. A digest of the protocol: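 Hydrodynamic diameter (number-weighted; PDI as sd^2/mean size^2) and zeta potential were measured by DLS at 173° scattering angle. Samples, 0.3125–5 µM DMSO solutions diluted into PBS, were examined after 6 min incubation at 37 °C.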

Where [3] appears, read: 0.3125 μM in PBS from DMSO stock.
Setting [4] is: 0.625 μM in PBS from DMSO stock.

Each structure is given as a SMILES string.

On to `CC1=C(/C=C/C(C)=C/C=C/C(C)=C/C=C/C=C(C)/C=C/C=C(\C)COC(=O)CCC(=O)O)C(C)(C)CCC1` [Compound 6, 8′-Apo-β-carotenol succinate], for which, in series [1], the solubility kinetic at 2 h was found to be 52.3 ± 2.4 µM. Moreover, in “Water dispersibility”, the “Water Dispersibility” value worked out at 1.5 mg/100 mL. Moreover, the “mean size (hydrodynamic diameter)” value in series [2] (setting [3]) is reported as 303.50 nm; in series [2] (setting [4]), 395.10 nm; in series [2] (1.25 μM in PBS from DMSO stock) it was 221.50 nm; in series [2] (2.5 μM in PBS from DMSO stock), 26.74 nm; in series [2] (3.75 μM in PBS from DMSO stock) it was 152.60 nm; in series [2] (5 μM in PBS from DMSO stock) it was 144.20 nm. Further, the zeta potential in series [2] (setting [3]) is recorded as −8.2 mV; in series [2] (setting [4]) it was −10.2 mV; in series [2] (1.25 μM in PBS from DMSO stock), −17.7 mV; in series [2] (2.5 μM in PBS from DMSO stock), −30.5 mV; in series [2] (3.75 μM in PBS from DMSO stock) it was −12.3 mV; in series [2] (5 μM in PBS from DMSO stock), −27.5 mV. In addition, the PDI came out at 0.0137 in series [2] (0.3125 μM in PBS); 0.0455 in series [2] (0.625 μM in PBS); 0.0218 in series [2] (1.25 μM in PBS); 0.0206 in series [2] (2.5 μM in PBS); 0.0268 in series [2] (3.75 μM in PBS); 0.0204 in series [2] (5 μM in PBS).

Take `CC1=C(/C=C/C(C)=C/C=C/C(C)=C/C=C/C=C(C)/C=C/C=C(C)/C=C/C2=C(C)C[C@@H](OC(=O)CCC(=O)O)CC2(C)C)C(C)(C)C[C@H](OC(=O)CCC(=O)O)C1` [Compound 7, Zeaxanthin bissuccinate]: the solubility kinetic at 2 h in series [1] is 0.6 ± 0.1 µM. The “Water Dispersibility” value in “Water dispersibility” was 1.3 mg/100 mL. Further, the “mean size (hydrodynamic diameter)” value in series [2] (setting [3]) is 1050.00 nm; in series [2] (setting [4]), 429.30 nm; in series [2] (1.25 μM in PBS from DMSO stock), 544.50 nm; in series [2] (2.5 μM in PBS from DMSO stock), 195.60 nm; in series [2] (3.75 μM in PBS from DMSO stock), 44.78 nm; in series [2] (5 μM in PBS from DMSO stock), 238.20 nm. For the same compound, the zeta potential came to 27.5 mV in series [2] (setting [3]); 23.4 mV in series [2] (setting [4]); 21.1 mV in series [2] (1.25 μM in PBS from DMSO stock); 17.9 mV in series [2] (2.5 μM in PBS from DMSO stock); 20.0 mV in series [2] (3.75 μM in PBS from DMSO stock); 20.1 mV in series [2] (5 μM in PBS from DMSO stock). Further, the PDI was 0.0407 in series [2] (0.3125 μM in PBS); 0.0162 in series [2] (0.625 μM in PBS); 0.0294 in series [2] (1.25 μM in PBS); 0.0202 in series [2] (2.5 μM in PBS); 0.0267 in series [2] (3.75 μM in PBS); 0.0270 in series [2] (5 μM in PBS).

With `CC1=C(/C=C/C(C)=C/C=C/C(C)=C/C=C/C=C(C)/C=C/C=C(C)/C=C/C2=C(C)C[C@@H](OC(=O)CCC(=O)O)CC2(C)C)C(C)(C)CCC1` [Compound 8, β-Cryptoxanthin succinate], the solubility kinetic at 2 h in series [1] worked out at 1.3 ± 0.1 µM. Further, the “Water Dispersibility” value in the series “Water dispersibility” is listed as “less than 0.5 mg/100 mL”. The “mean size (hydrodynamic diameter)” value was found to be 11.04 nm in series [2] (setting [3]); 25.68 nm in series [2] (setting [4]); 31.94 nm in series [2] (1.25 μM in PBS from DMSO stock); 34.03 nm in series [2] (2.5 μM in PBS from DMSO stock); 468.90 nm in series [2] (3.75 μM in PBS from DMSO stock); 14.19 nm in series [2] (5 μM in PBS from DMSO stock). Also, the zeta potential in series [2] (setting [3]) is reported as 34.1 mV; in series [2] (setting [4]) it was 27.5 mV; in series [2] (1.25 μM in PBS from DMSO stock), 21 mV; in series [2] (2.5 μM in PBS from DMSO stock), 17.6 mV; in series [2] (3.75 μM in PBS from DMSO stock), 2.55 mV; in series [2] (5 μM in PBS from DMSO stock), −0.01 mV. Also, the PDI in series [2] (0.3125 μM in PBS) stood at 0.0168; in series [2] (0.625 μM in PBS), 0.0307; in series [2] (1.25 μM in PBS), 0.0723; in series [2] (2.5 μM in PBS), 0.0360; in series [2] (3.75 μM in PBS) it was 0.0131; in series [2] (5 μM in PBS), 0.0339.

The record behind these values is paper PMC9369794 (Molecules, 2022).
